# Reference: patent publication US10294202B2, “Pyrrolidinones as herbicides” (FMC Corporation, priority 2013, dated 2019)
# Columns and labels:
# [1] = tested on: ducksalad; assay: Test B flooded paddy test; assay type: in vivo, Heteranthera limosa; details: 500 g ai/ha, Flood; scale of 0 to 100 where 0 is no effect and 100 is complete control
# Method in brief: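 2-leaf plants; flood 3 cm over soil; compound into paddy water; depth held. Greenhouse 13–15 d. Visual rating vs controls, 0 (no effect) to 100 (complete control); dash = not tested.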
# [2] = tested on: barnyardgrass; assay: Test A pre-/postemergence herbicide test; assay type: in vivo, Echinochloa crus-galli
# Method in brief: (§1)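 Directed soil spray to seeded pots (preemergence) or spray onto one- to two-leaf seedlings 2–10 cm tall (postemergence); loam/sand substrate throughout. Evaluated visually after about 10 days against untreated plants, 0 = no effect, 100 = complete control.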
# [3] = tested on: blackgrass; assay: Test C pre-/postemergence herbicide test; assay type: in vivo, Alopecurus myosuroides
# Method in brief: (§2)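 Two application timings ran in parallel with identically formulated test chemicals (non-phytotoxic solvent, surfactant included): spray on seeded loam–sand soil, and spray on emerged plants 2 to 18 cm high. Evaluation at 13 to 15 days compared each species with controls, rated from 0 up to 100.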
# [4] = tested on: oilseed rape; assay: Test C pre-/postemergence herbicide test; assay type: in vivo, Brassica napus
# Method in brief: as §2
# [5] = tested on: nutsedge, yellow; assay: Test C pre-/postemergence herbicide test; assay type: in vivo, Cyperus esculentus
# Method in brief: as §2
# [6] = tested on: corn; assay: Test C pre-/postemergence herbicide test; assay type: in vivo, Zea mays
# Method in brief: as §2
# [7] = tested on: morningglory; assay: Test C pre-/postemergence herbicide test; assay type: in vivo, Ipomoea coccinea
# Method in brief: as §2
# [8] = tested on: soybean; assay: Test C pre-/postemergence herbicide test; assay type: in vivo, Glycine max
# Method in brief: as §2
# [9] = tested on: pigweed; assay: Test A pre-/postemergence herbicide test; assay type: in vivo, Amaranthus retroflexus; details: for Plant response rating, Pigweed: 0 to 100 scale
# Method in brief: as §1
# [10] = tested on: lambsquarters; assay: Test C pre-/postemergence herbicide test; assay type: in vivo, Chenopodium album
# Method in brief: as §2
# [11] = tested on: corn; assay: Test A pre-/postemergence herbicide test; assay type: in vivo, Zea mays; details: Postemergence
# Method in brief: as §1
# [12] = Postemergence, 31 g ai/ha, scale 0 to 100 (0 no effect, 100 complete control)
# [13] = Postemergence, 62 g ai/ha, scale 0 (no effect) to 100 (complete control)
# [14] = Postemergence, 125 g ai/ha, scale 0 to 100 (0 no effect, 100 complete control)
# [15] = Postemergence, 250 g ai/ha, scale 0 to 100 (0 no effect, 100 complete control)
# [16] = Preemergence, 31 g ai/ha, scale 0 to 100, 0 is no effect and 100 is complete control
# [17] = Preemergence, 62 g ai/ha, scale 0 to 100
# [18] = Preemergence, 125 g ai/ha, scale 0 to 100 (0 no effect, 100 complete control)
compound,measurement,setting,value
O=C1NCC(c2ccc(F)cc2)C1C(=O)Nc1cccc(F)c1F (racemic) [Compound 119],"Plant response rating, Ducksalad",[1],100
same,"Plant response rating, Barnyardgrass","[2]; 125 g ai/ha, visual rating, 0 to 100 scale, 0 no effect, 100 complete control, approximately 10 days, preemergence",90
same,"Plant response rating, Barnyardgrass","[2]; Postemergence, 125 g ai/ha, 0 to 100 scale, 0 no effect, 100 complete control",90
same,"Plant response rating, Barnyardgrass","[2]; Postemergence, 500 g ai/ha, 0 to 100 scale (0 no effect, 100 complete control)",90
same,"Plant response rating, Barnyardgrass","[2]; preemergence, 500 g ai/ha, 0 to 100 scale (0 no effect, 100 complete control)",90
same,"Plant response rating, Blackgrass",[3]; [12],0
same,"Plant response rating, Blackgrass",[3]; [13],0
same,"Plant response rating, Blackgrass",[3]; [14],0
same,"Plant response rating, Blackgrass",[3]; [15],0
same,Blackgrass plant response rating,[3]; [16],0
same,"Plant response rating, Blackgrass",[3]; [17],70
same,"Plant response rating, Blackgrass",[3]; [18],80
same,"Plant response rating (scale of 0 to 100), Blackgrass","[3]; Preemergence, 250 g ai/ha",85
same,"Plant response rating, Oilseed Rape",[4]; [12],0
same,"Plant response rating, Oilseed Rape",[4]; [13],0
same,"Plant response rating, Oilseed Rape",[4]; [14],0
same,"Plant response rating, Oilseed Rape",[4]; [15],5
same,Oilseed Rape plant response rating,[4]; [16],0
same,"Plant response rating, Oilseed Rape",[4]; [17],5
same,"Plant response rating, Oilseed Rape",[4]; [18],80
same,"Plant response rating (scale of 0 to 100), Oilseed Rape","[4]; Preemergence, 250 g ai/ha",80
same,"Plant response rating, Nutsedge, Yellow",[5]; [12],0
same,"Plant response rating, Nutsedge, Yellow",[5]; [13],0
same,"Plant response rating, Nutsedge, Yellow",[5]; [14],0
same,"Plant response rating, Nutsedge, Yellow",[5]; [15],0
same,"Nutsedge, Yellow plant response rating",[5]; [16],0
same,"Plant response rating, Nutsedge, Yellow",[5]; [17],0
same,"Plant response rating, Nutsedge, Yellow",[5]; [18],0
same,"Plant response rating (scale of 0 to 100), Nutsedge, Yellow","[5]; Preemergence, 250 g ai/ha",0
same,"Plant response rating, Corn",[6]; [12],0
same,"Plant response rating, Corn",[6]; [13],0
same,"Plant response rating, Corn",[6]; [14],0
same,"Plant response rating, Corn",[6]; [15],5
same,Corn plant response rating,[6]; [16],0
same,"Plant response rating, Corn",[6]; [17],0
same,"Plant response rating, Corn",[6]; [18],15
same,"Plant response rating (scale of 0 to 100), Corn","[6]; Preemergence, 250 g ai/ha",45
same,"Plant response rating, Morningglory",[7]; [12],0
same,"Plant response rating, Morningglory",[7]; [13],0
same,"Plant response rating, Morningglory",[7]; [14],5
same,"Plant response rating, Morningglory",[7]; [15],5
same,Morningglory plant response rating,[7]; [16],0
same,"Plant response rating, Morningglory",[7]; [17],0
same,"Plant response rating, Morningglory",[7]; [18],35
same,"Plant response rating (scale of 0 to 100), Morningglory","[7]; Preemergence, 250 g ai/ha",35
same,"Plant response rating, Soybean",[8]; [12],5
same,"Plant response rating, Soybean",[8]; [13],5
same,"Plant response rating, Soybean",[8]; [14],0
same,"Plant response rating, Soybean",[8]; [15],5
same,Soybean plant response rating,[8]; [16],0
same,"Plant response rating, Soybean",[8]; [17],20
same,"Plant response rating, Soybean",[8]; [18],0
same,"Plant response rating (scale of 0 to 100), Soybean","[8]; Preemergence, 250 g ai/ha",0
same,"Plant response rating, Pigweed","[9]; 125 g ai/ha, visual rating, 0 no effect, 100 complete control, approximately 10 days, preemergence",30
same,"Plant response rating, Pigweed","[9]; Postemergence, 125 g ai/ha, 0 no effect, 100 complete control",30
same,"Pigweed plant response rating (0 to 100 scale, 0 is no effect, 100 is complete control)","[9]; Postemergence, 500 g ai/ha",30
same,"Plant response rating, Pigweed","[9]; preemergence, 500 g ai/ha",40
same,"Plant response rating, Lambsquarters",[10]; [12],5
same,"Plant response rating, Lambsquarters",[10]; [13],50
same,"Plant response rating, Lambsquarters",[10]; [14],75
same,"Plant response rating, Lambsquarters",[10]; [15],70
same,Lambsquarters plant response rating,[10]; [16],25
same,"Plant response rating, Lambsquarters",[10]; [17],60
same,"Plant response rating, Lambsquarters",[10]; [18],85
same,"Plant response rating (scale of 0 to 100), Lambsquarters","[10]; Preemergence, 250 g ai/ha",85
same,"Plant response rating, Corn","[11]; 125 g ai/ha, 0 to 100 scale, 0 no effect, 100 complete control",30
same,"Plant response rating, Corn","[11]; 500 g ai/ha, 0 to 100 scale (0 no effect, 100 complete control)",70
